{"source": "patent US20090306058A1", "about": "“Sulphone Derivatives for Treatment of Cancer” (priority 2005, published 2009)", "test_system": "Cells expressing Notch (ALL-SIL, DND-41, HPB-ALL or TALL-1)", "assay": "Assay for Cell Cycle Arrest", "assay_type": "cell-based", "conditions": "concentrations up to 10 μM, incubation typically 4-8 days, in comparison to untreated controls", "experimental": "Cells expressing Notch (ALL-SIL, DND-41, HPB-ALL or TALL-1) (Weng et al, Science, 306 (2004), 269-71) were incubated in the presence or absence of a compound of the instant invention (e.g. the compound of Examples 2 and 7 below) at concentrations up to 10 μM. At the end of the incubation (typically 4-8 days), the cells were collected, fixed in 70% ethanol on ice for >2 hours, washed, then labelled for 15 min at 37° C. with propidium iodide (0.2 mg/ml) (PI) in the presence of 0.1% Triton X100 and 0.2 mg/ml RNase and subjected to FACS analysis.", "data": [{"compound": "CC[C@@H]1C[C@H]2C[C@@](c3cc(F)ccc3F)(S(=O)(=O)c3ccc(C(F)(F)F)cc3)CC[C@H]2NS1(=O)=O", "note": "[Example 2, (3R,4aS,6S,8aR)-6-(2,5-difluorophenyl)-3-ethyl-6-{[4-(trifluoromethyl)phenyl]sulfonyl}octahydro-1H-2,1-benzothiazine 2,2-dioxide]", "values": [{"measurement": "cell cycle populations by FACS (propidium iodide)", "result": "severe loss of G2- and S-phase populations"}]}]}
